Results: publication PMC8037182, “Solvothermal Synthesis of Multiple Dihydropyrimidinones at a Time as Inhibitors of Eg5” (Molecules, 2021)

How the values were obtained:
[1] = test system: T24 cell line; experiment: Cytotoxicity MTS assay, T24 cell line; format: cell-based; conditions: for OD490 Mean / OD490 Well 1 / OD490 Well 2 / OD490 Well 3: T24 cell line, first assay;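 for OD490 Mean: blank control wells received 0.025% DMSO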;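 for OD490 Well 1: blank control wells received 0.025% DMSO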;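 for OD490 Well 2: blank control wells received 0.025% DMSO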;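 for OD490 Well 3: blank control wells received 0.025% DMSO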
In short: (§1)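 Cells were seeded at 1000 per well, allowed 24 h, then exposed to compounds at final concentrations of 0.5 to 100 µM for 24 h, with 0.025% DMSO as blank. MTS reagent was added for 2 h at 37 °C and absorbance read at 490 nm. IC50 came from non-linear regression of viability against concentration.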

[2] = test system: L929 cell line; experiment: Cytotoxicity MTS assay, L929 cell line; format: cell-based; conditions: for OD490 values, Mean / OD490 values, Well 1 / OD490 values, Well 2 / OD490 values, Well 3: L929 cell line
In short: as §1

CCOC(=O)c1[nH]c(C2NC(=S)NC(C)=C2C(=O)OC)c(C(=O)OCC)c1C (centres unmarked) [D12]
IC50 ([1]; MTS assay, 24 h exposure): > 150 µM
OD490 Mean ([1]; 0.5μM): 1.1142
OD490 Well 1 ([1]; 0.5μM): 1.0855
OD490 Well 2 ([1]; 0.5μM): 0.8354
OD490 Well 3 ([1]; 0.5μM): 1.4216
OD490 Mean ([1]; 1μM): 1.1490
OD490 Well 1 ([1]; 1μM): 1.1324
OD490 Well 2 ([1]; 1μM): 1.1847
OD490 Well 3 ([1]; 1μM): 1.1298
OD490 Mean ([1]; 10μM): 1.2900
OD490 Well 1 ([1]; 10μM): 1.3295
OD490 Well 2 ([1]; 10μM): 1.2196
OD490 Well 3 ([1]; 10μM): 1.3210
OD490 Mean ([1]; 25μM): 1.3787
OD490 Well 1 ([1]; 25μM): 1.3758
OD490 Well 2 ([1]; 25μM): 1.4030
OD490 Well 3 ([1]; 25μM): 1.3572
OD490 Mean ([1]; 50μM): 1.3058
OD490 Well 1 ([1]; 50μM): 1.3832
OD490 Well 2 ([1]; 50μM): 1.3204
OD490 Well 3 ([1]; 50μM): 1.2137
OD490 Mean ([1]; 100μM): 1.2394
OD490 Well 1 ([1]; 100μM): 1.3664
OD490 Well 2 ([1]; 100μM): 1.1849
OD490 Well 3 ([1]; 100μM): 1.1670
OD490 values, Mean ([2]; 0.5μM, first assay): 1.1913
OD490 values, Well 1 ([2]; 0.5μM, first assay): 1.1038
OD490 values, Well 2 ([2]; 0.5μM, first assay): 1.2202
OD490 values, Well 3 ([2]; 0.5μM, first assay): 1.2500
OD490 values, Mean ([2]; 0.5μM, second assay): 1.4730
OD490 values, Well 1 ([2]; 0.5μM, second assay): 1.5380
OD490 values, Well 2 ([2]; 0.5μM, second assay): 1.4321
OD490 values, Well 3 ([2]; 0.5μM, second assay): 1.4489
OD490 values, Mean ([2]; 0.5μM, third assay): 1.5772
OD490 values, Well 1 ([2]; 0.5μM, third assay): 1.5471
OD490 values, Well 2 ([2]; 0.5μM, third assay): 1.5630
OD490 values, Well 3 ([2]; 0.5μM, third assay): 1.6214
OD490 values, Mean ([2]; 1μM, first assay): 1.1860
OD490 values, Well 1 ([2]; 1μM, first assay): 1.2156
OD490 values, Well 2 ([2]; 1μM, first assay): 1.2049
OD490 values, Well 3 ([2]; 1μM, first assay): 1.1374
OD490 values, Mean ([2]; 1μM, second assay): 1.4734
OD490 values, Well 1 ([2]; 1μM, second assay): 1.5248
OD490 values, Well 2 ([2]; 1μM, second assay): 1.4852
OD490 values, Well 3 ([2]; 1μM, second assay): 1.4101
OD490 values, Mean ([2]; 1μM, third assay): 1.5596
OD490 values, Well 1 ([2]; 1μM, third assay): 1.5474
OD490 values, Well 2 ([2]; 1μM, third assay): 1.5836
OD490 values, Well 3 ([2]; 1μM, third assay): 1.5478
OD490 values, Mean ([2]; 10μM, first assay): 1.1924
OD490 values, Well 1 ([2]; 10μM, first assay): 1.2175
OD490 values, Well 2 ([2]; 10μM, first assay): 1.1577
OD490 values, Well 3 ([2]; 10μM, first assay): 1.2021
OD490 values, Mean ([2]; 10μM, second assay): 1.4056
OD490 values, Well 1 ([2]; 10μM, second assay): 1.3665
OD490 values, Well 2 ([2]; 10μM, second assay): 1.4252
OD490 values, Well 3 ([2]; 10μM, second assay): 1.4252
OD490 values, Mean ([2]; 10μM, third assay): 1.6223
OD490 values, Well 1 ([2]; 10μM, third assay): 1.6874
OD490 values, Well 2 ([2]; 10μM, third assay): 1.5874
OD490 values, Well 3 ([2]; 10μM, third assay): 1.5922
OD490 values, Mean ([2]; 25μM, first assay): 1.1330
OD490 values, Well 1 ([2]; 25μM, first assay): 1.1639
OD490 values, Well 2 ([2]; 25μM, first assay): 1.1385
OD490 values, Well 3 ([2]; 25μM, first assay): 1.0965
OD490 values, Mean ([2]; 25μM, second assay): 1.3592
OD490 values, Well 1 ([2]; 25μM, second assay): 1.4632
OD490 values, Well 2 ([2]; 25μM, second assay): 1.2302
OD490 values, Well 3 ([2]; 25μM, second assay): 1.3841
OD490 values, Mean ([2]; 25μM, third assay): 1.5851
OD490 values, Well 1 ([2]; 25μM, third assay): 1.5924
OD490 values, Well 2 ([2]; 25μM, third assay): 1.5955
OD490 values, Well 3 ([2]; 25μM, third assay): 1.5674
OD490 values, Mean ([2]; 50μM, first assay): 1.0425
OD490 values, Well 1 ([2]; 50μM, first assay): 1.0133
OD490 values, Well 2 ([2]; 50μM, first assay): 1.0567
OD490 values, Well 3 ([2]; 50μM, first assay): 1.0575
OD490 values, Mean ([2]; 50μM, second assay): 1.2636
OD490 values, Well 1 ([2]; 50μM, second assay): 1.2147
OD490 values, Well 2 ([2]; 50μM, second assay): 1.2548
OD490 values, Well 3 ([2]; 50μM, second assay): 1.3214
OD490 values, Mean ([2]; 50μM, third assay): 1.3874
OD490 values, Well 1 ([2]; 50μM, third assay): 1.3352
OD490 values, Well 2 ([2]; 50μM, third assay): 1.3582
OD490 values, Well 3 ([2]; 50μM, third assay): 1.4687
OD490 values, Mean ([2]; 100μM, first assay): 0.9106
OD490 values, Well 1 ([2]; 100μM, first assay): 0.8752
OD490 values, Well 2 ([2]; 100μM, first assay): 0.9980
OD490 values, Well 3 ([2]; 100μM, first assay): 0.8587
OD490 values, Mean ([2]; 100μM, second assay): 1.0255
OD490 values, Well 1 ([2]; 100μM, second assay): 0.9632
OD490 values, Well 2 ([2]; 100μM, second assay): 1.0012
OD490 values, Well 3 ([2]; 100μM, second assay): 1.1122
OD490 values, Mean ([2]; 100μM, third assay): 1.3052
OD490 values, Well 1 ([2]; 100μM, third assay): 1.3254
OD490 values, Well 2 ([2]; 100μM, third assay): 1.2547
OD490 values, Well 3 ([2]; 100μM, third assay): 1.3354
IC50 ([2]; MTS assay, 24 h exposure, ordinary fibroblast, not cancer cells): 121 µM
